Source: PMC9364673 (Bioorganic Chemistry, 2022)
Read-outs that look alike come from different tables or passages of the source.

Legend:
DPP-4 enzyme = DPP-4 enzyme (Homo sapiens, UniProt P27487); test: biochemical
type 2 diabetic rats = test: In vivo antidiabetic effect of a single dose on OGTT in type 2 diabetic; set-up: species or system male Wistar albino rats; conditions: oral doses equivalent to 10 mg/kg, NA: Not active
RAW264.7 cells = test: MTT cell viability assay on RAW264.7 macrophages; type: cell-based, murine; conditions: Mus musculus, RAW264.7, 24 h, read-out: IC50 (RAW264.7 cells viability)
[1] = Antioxidant activity, DPPH scavenging method; conditions: read-out: IC50 (DPPH scavenging); DPPH 100 μM, 30 min, mean ± SD
normal rats = test: In vivo screening of antihyperglycemic effect, oral tolerance test; set-up: species or system male Wistar albino rats; conditions: OGTT, oral administration, NA: Not active
CRP = test: ELISA of CRP release by LPS-stimulated RAW264.7 macrophages; type: cell-based, murine; conditions: LPS (1 μg/mL) stimulated RAW264.7, compound at ¼ IC50, ELISA, compared to LPS
IL-6 = test: ELISA of IL-6 release by LPS-stimulated RAW264.7 macrophages; type: cell-based, murine; conditions: LPS (1 μg/mL) stimulated RAW264.7, compound at ¼ IC50, ELISA, compared to LPS

Sequence of DPP-4 enzyme (P27487 whole entry): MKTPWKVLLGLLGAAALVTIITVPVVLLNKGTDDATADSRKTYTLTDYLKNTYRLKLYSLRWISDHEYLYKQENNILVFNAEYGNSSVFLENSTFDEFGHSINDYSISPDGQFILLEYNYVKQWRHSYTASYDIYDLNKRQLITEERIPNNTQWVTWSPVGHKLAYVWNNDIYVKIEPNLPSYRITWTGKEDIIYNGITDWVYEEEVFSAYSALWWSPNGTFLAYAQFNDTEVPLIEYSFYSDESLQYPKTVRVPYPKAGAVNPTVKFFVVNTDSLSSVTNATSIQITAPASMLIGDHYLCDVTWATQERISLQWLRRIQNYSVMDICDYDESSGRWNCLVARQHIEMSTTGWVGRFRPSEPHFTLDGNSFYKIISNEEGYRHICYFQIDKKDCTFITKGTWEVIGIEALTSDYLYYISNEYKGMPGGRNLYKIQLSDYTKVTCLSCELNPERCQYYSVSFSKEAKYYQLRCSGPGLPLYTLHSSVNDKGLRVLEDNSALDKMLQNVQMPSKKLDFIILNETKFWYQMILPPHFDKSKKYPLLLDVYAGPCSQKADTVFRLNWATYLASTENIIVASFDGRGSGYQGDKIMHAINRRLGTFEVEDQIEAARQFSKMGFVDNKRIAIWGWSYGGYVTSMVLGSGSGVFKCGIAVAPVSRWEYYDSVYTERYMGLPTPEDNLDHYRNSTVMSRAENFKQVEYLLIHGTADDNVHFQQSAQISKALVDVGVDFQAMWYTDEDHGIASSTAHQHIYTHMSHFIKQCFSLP

Row | Compound | IC50 (DPP-4 enzyme) [nM] | % Reduction in BGL compared to control (type 2 diabetic rats) [%] | IC50 [1] [nM] | % Reduction in BGL compared to control (normal rats) [%] | other results
1 | Cc1ccc(NC(=S)NS(=O)(=O)C2=CNC3SC(=O)CN3C2=O)cc1 (stereo not shown) [Compound 4b, 3-(4-Methylphenyl)-1-[(2,5-dioxo-8,8a-dihydro-3H-thiazolo[3,2-a]pyrimidin-6-yl)sulfonyl]-thiourea] | 63 ± 3 | 36.59 | 65900 ± 3400 |  | IC50 (RAW264.7 cells): 241000 ± 69200 nM
2 | O=C(Nc1ccccc1)NS(=O)(=O)C1=CNC2SC(=O)CN2C1=O (stereo not shown) [Compound 4c, 1-[(2,5-Dioxo-8,8a-dihydro-3H-thiazolo[3,2-a]pyrimidin-6-yl)sulfonyl]-3-phenyl-urea] | 418 ± 20 |  |  |  | 
3 | Cc1ccc(NC(=O)NS(=O)(=O)C2=CNC3SC(=O)CN3C2=O)cc1 (stereo not shown) [Compound 4d, 3-(4-Methylphenyl)-1-[(2,5-dioxo-8,8a-dihydro-3H-thiazolo[3,2-a]pyrimidin-6-yl)sulfonyl]-urea] | 1320 ± 65 |  |  |  | 
4 | O=C(O)CSc1ncc(S(=O)(=O)NC(=S)Nc2ccccc2)c(=O)[nH]1 [Compound 5a, 2-[[6-Oxo-5-(phenylcarbamothioylsulfamoyl)-1H-pyrimidin-2-yl]sulfanyl]acetic acid] | 577 ± 28 |  |  |  | 
5 | Cc1ccc(NC(=S)NS(=O)(=O)c2cnc(SCC(=O)O)[nH]c2=O)cc1 [Compound 5b, 2-[[5-(4-Methylphenylcarbamothioylsulfamoyl)-6-oxo-1H-pyrimidin-2-yl]sulfanyl]acetic acid] | 634 ± 31 |  |  | 15.89 | 
6 | O=C(O)CSc1ncc(S(=O)(=O)NC(=O)Nc2ccccc2)c(=O)[nH]1 [Compound 5c, 2-[[6-Oxo-5-(phenylcarbamoylsulfamoyl)-1H-pyrimidin-2-yl]sulfanyl]acetic acid] | 290 ± 18 |  |  |  | 
7 | NNc1ncc(S(=O)(=O)NC(=S)Nc2ccccc2)c(=O)[nH]1 [Compound 6a, 1-[(2-Hydrazino-6-oxo-1H-pyrimidin-5-yl)sulfonyl]-3-phenyl-thiourea] | 47 ± 2 | 23.24 | 139000 ± 7100 | 17.70 | IC50 (RAW264.7 cells): 175000 ± 24700 nM; reduction of the release of CRP (CRP): about 75.5%; decrease in IL-6 levels (IL-6): about 85.9%
8 | Cc1ccc(NC(=S)NS(=O)(=O)c2cnc(NN)[nH]c2=O)cc1 [Compound 6b, 1-[(2-Hydrazino-6-oxo-1H-pyrimidin-5-yl)sulfonyl]-3-(4-methylphenyl)-thiourea] | 71 ± 4 | 41.00 | 123000 ± 6300 |  | IC50 (RAW264.7 cells): 189000 ± 26000 nM
9 | NNc1ncc(S(=O)(=O)NC(=O)Nc2ccccc2)c(=O)[nH]1 [Compound 6c, 1-[(2-Hydrazino-6-oxo-1H-pyrimidin-5-yl)sulfonyl]-3-phenyl-urea] | 264 ± 13 |  |  | 17.36 | 
10 | O=c1c(S(=O)(=O)NC(=S)Nc2ccccc2)cnc2[nH]ncn12 [Compound 7a, 1-[(5-oxo-1H-[1], [2], [4]triazolo[4,3-a]pyrimidin-6-yl)sulfonyl]-3-phenyl-thiourea] |  |  |  | 17.55 | IC50 (DPP-4 enzyme; read-out: DPP-4 IC50, in vitro, 0.01 to 10 µM, mean ± SD): 153 ± 8 nM
11 | O=c1[nH]c(N/N=C/c2ccccc2)ncc1S(=O)(=O)NC(=S)Nc1ccccc1 [Compound 8a, 1-[[2-[(2E)-2-benzylidenehydrazino]-6-oxo-1H-pyrimidin-5-yl]sulfonyl]-3-phenyl-thiourea] | 104 ± 5 |  |  | 16.88 | 
12 | Cc1ccc(NC(=S)NS(=O)(=O)c2cnc(N/N=C/c3ccccc3)[nH]c2=O)cc1 [Compound 8b, 1-[[2-[(2E)-2-benzylidenehydrazino]-6-oxo-1H-pyrimidin-5-yl]sulfonyl]-3-(4-methylphenyl)-thiourea] | 75 ± 3 | 23.94 | 60800 ± 3100 |  | IC50 (RAW264.7 cells): 155000 ± 24200 nM; reduction of the release of CRP (CRP): ~82.6%; decrease in IL-6 levels (IL-6): ~80.2%
13 | O=C(Nc1ccccc1)NS(=O)(=O)c1cnc(N/N=C/c2ccccc2)[nH]c1=O [Compound 8c, 1-[[2-[(2E)-2-benzylidenehydrazino]-6-oxo-1H-pyrimidin-5-yl]sulfonyl]-3-phenyl-urea] | 468 ± 23 |  |  |  | 
14 | Cc1ccc(S(=O)(=O)NC(=O)NN2CC3CCCC3C2)cc1 (stereo not shown) [Diamicron, reference compound] |  |  |  | 15.86 | 
15 | CC#CCn1c(N2CCC[C@@H](N)C2)nc2c1c(=O)n(Cc1nc(C)c3ccccc3n1)c(=O)n2C [Linagliptin, linagliptin, reference compound] |  | 36.42 |  |  | 
16 | Cc1c(C)c2c(c(C)c1O)CCC(C)(C(=O)O)O2 (stereo not shown) [Trolox, reference compound] |  |  | 55200 ± 2800 |  | 
